Data published in patent US5780642A, “Imidazole derivatives as therapeutic agents” (KNOLL Aktiengesellschaft, priority 1993, dated 1998).
Where a name gives a salt, the structure may show the parent alone. Read-outs that look alike come from different tables or passages of the source.

Columns and labels:
[1] = tested on: Carrageenan-induced pleurisy (migrating leukocytes); assay: Carrageenan-induced pleurisy in rats; type: in vivo; conditions: rat, p.o. at time of challenge and 24h and 48h thereafter
Description: The most advantageous compounds of formula I were active in Tests A and B and also in the following test. Carrageenan-induced pleurisy in rats was carried out as described by Ackerman et al. J. Pharmacol. Exp. Therap. 1980, 215, 588-595. Migrating leukocytes were harvested by lavage of the thoracic cavity 72h after injection of 0.3 ml 1% λcarrageenan in sterile isotonic saline. Test compounds were administered p.o. at the time of challenge and 24h and 48 h thereafter.

[2] = tested on: Zymosan Stimulated Macrophages (arachidonic acid release); assay: Test A: Inhibition of Arachidonic Acid Release from Zymosan Stimulated Macrophages; type: cell-based, mouse (female MF1 mice); conditions: Mus musculus, Macrophage, read-out: Test A IC50
Description: Test A was carried out in the following way:
Inhibition of Arachidonic Acid Release from Zymosan Stimulated Macrophages
Female MF1 mice (weighing 20 to 25 g) were killed using a rising concentration of CO2. The mice were laid on their backs and the abdomens wiped with 70% alcohol. The skin was pulled back, exposing the peritoneal wall. Medium A (5 ml) (see below) was injected into the peritoneal cavity of each mouse followed by approximately 1 ml of air using a 20 ml syringe and a 21G×40 mm needle in order to form a suspension of macrophage cells. The medium and cells were then removed using a 19G×40 mm needle. The resulting suspension was returned to a sterile beaker kept on ice. The extracts from all the mice were pooled and this pooled cell suspension was counted using a Coulter counter and adjusted to a final cell count of 1-1.3×10^6 cells/ml prior to labelling with [^3 H]-arachidonic acid. Typically five mice provided sufficient cells for each multiwell plate.
Sufficient [^3 H]-arachidonic acid in ethanol to give a final concentration of 1.6 μCi/ml (equivalent to 40 μCi/plate) was blown to dryness under nitrogen. The arachidonic acid was then resuspended in 1 or 2 ml of the cell suspension which was then mixed with the remainder of the cell suspension in a centrifuge bottle. The labelled cell suspension was then plated out into sterile plastic 96 flat-bottomed well plates (250 μl per well) and incubated overnight at 37° C. in a moist atmosphere of 5% CO2, 95% air.
The following day, non-adherent cells were removed by washing 3 times with sterile phosphate buffered saline (PBS). The adherent peritoneal macrophages were then cultured for a further 24 hours in the presence or absence of drugs, in medium B (see below) at 37° in a 5% CO2 atmosphere in order to measure the effects of drugs on the spontaneous release of arachidonic acid in the absence of stimulus. After this incubation, supernatants were removed to give media 1 and stored in sealed multi-well plates at 4° C. prior to scintillation counting. Drugs which potentiated spontaneous release of arachidonic acid (125% of controls) were deemed to be toxic at the concentration at which this phenomenon occurred. The supernatants were replaced by fresh medium C containing fresh drug and a stimulus. Three drugs were tested at six concentrations (100, 50, 20, 10, 5 and 1 μM) in replicates of four on each plate. The other wells contained controls consisting of a positive control (e.g. dexamethasone), medium (B) only and medium C only.
Incubation was then continued for a further 5 hours, whereupon the supernatants were collected to give media 2 and the adherent cells washed with PBS. The cells were then lysed with 100 μl of 0.1% TRITON® X100 in a 0.1% solution of bovine serum albumin in 0.9% saline and mechanically disrupted to give cell lysates. These supernatants (media 2) and cell lysates (Cells) were also stored in sealed multi-well plates at 4° C. prior to scintillation counting. 200 μl aliquots of media, or 100 μl aliquots of cells were counted using 2 ml of OPTIPHASE "HIGH SAFE" (Trademark of LKB) as scintillant.
The percentage of arachidonic acid released was calculated using the mean values for each group of 4 wells in the following equation. [formula]
The value for the arachidonic acid release in the absence of stimulus (spontaneous, cpm of media 2) from cells which had been exposed to neither stimulus nor drug was subtracted from all equivalent values (cpm media 2, stimulated with or without drug) to give the net stimulated release. The percentage inhibition of arachidonic acid release caused by a drug may then be calculated using the following equation. [formula]
Compounds of formula I were tested at six concentrations (100, 50, 20, 10, 5 and 1 μM) and IC50 values calculated. Compounds with IC50 values≤100 μM are considered to be active. Advantageous compounds have an IC50 value<50 μM.
Medium A (for peritoneal lavage) […]

[3] = tested on: Carrageenan-induced rat paw oedema; assay: Test B: Carrageenan-induced rat paw oedema test; type: in vivo; conditions: 100 mg/kg oral; active = 20% or greater inhibition of paw oedema in at least two out of three tests
Description: Test B was carried out in the following way: Carrageenan-induced rat paw oedema test Female rats, weight range 125-150 g were fasted overnight. One of the hind legs of each animal was marked with a line at the connection between the cuboid/navicular and calcaneus/talus bones. Groups of six rats were orally dosed at 10 ml/kg, in random order, with a given dose of the test compound given as a solution or suspension in 10% (w/v) aqueous acacia solution. One hour after dosing, 0.1 ml of 1% (w/v) sterile carrageenan λ in normal saline was injected deeply into the plantar surface of the marked hind foot of each rat. The volume of the foot (up to the marked line) was measured immediately after injection using duplicate water displacement readings. Three hours after injection the foot volume was measured again and the percentage increase in foot volume relative to the initial reading was calculated. The increase in foot volume (i.e. the degree of oedema) in drug treated animals when compared with that in the drug untreated control gave the degree of inhibition of paw oedema by the drug. Compounds were considered to be active in this test if they produced a 20% or greater inhibition of paw oedema in at least two out of three tests after oral dosing at 100 mg/kg. Statistical significance was assessed using the Student's t test for single dose studies and Dunnett's test for multiple dose studies. More advantageous compounds were active in both Tests A and B.

[4] = inhibition of arachidonic acid release, zymosan stimulated mouse peritoneal macrophages, tested at 100, 50, 20, 10, 5 and 1 μM, ≤100 μM considered active

IC50 [2, 4] | Structure (SMILES) | also measured
20 µM | CC(C)(CNCCCn1ccnc1)Oc1ccc(Cl)cc1 [Example 1, 2-(4-chlorophenoxy)-3'-(imidazol-1-yl)-2-methyldipropylamine] | activity in carrageenan-induced pleurisy at 10 mg/kg [1]: active
30 µM | c1ccc(OCCNCCCn2ccnc2)cc1 [Example 3, 3-(Imidazol-1-yl)-N-(2-phenoxyethyl)propylamine] | activity in Test B (inhibition of paw oedema) [3]: active
15 µM | CCCCCCNC(=O)Cc1ccc(C(C)(C)NCCCn2ccnc2)cc1 [Example 29, N-Hexyl-4-{1-[3-(imidazol-1-yl)propylamino]-1-methylethyl}phenylacetamide] | activity in carrageenan-induced pleurisy at 10 mg/kg [1]: active
92 µM | CC(C)(NCC(O)Cn1ccnc1)c1ccc(Cl)cc1 (stereo not drawn) [Example 43, 1-[1-(4-chlorophenyl)-1-methylethylamino]-3-(imidazol-1-yl)propan-2-ol] | activity in carrageenan-induced pleurisy at 3 mg/kg or lower [1]: active
– | CC(C)(NCCCn1ccnc1)c1ccc(CCNS(=O)(=O)c2ccccc2)cc1 [Example 56, N-[2-(4-{1-[3-(imidazol-1-yl)propylamino]-1-methylethyl}phenyl)ethyl]-benzenesulphonamide] | activity in carrageenan-induced pleurisy at 10 mg/kg [1]: active; IC50 [2]: 8 µM
17 µM | CCC(CC)(NCCCn1cnc(CCNC(=O)c2ccccc2)c1)c1ccccc1 [Example 60, N-(2-{1-[3-(1-ethyl-1-phenylpropylamino)propyl]imidazol-4-yl}ethyl)benzamide] | activity in carrageenan-induced pleurisy at 3 mg/kg or lower [1]: active
50 µM | Cc1cc(S(=O)(=O)CC(C)(C)NCCCn2ccnc2)c(C)cc1Cl [Example 69, N-[2-(4-chloro-2,5-xylylsulphonyl)-1,1-dimethylethyl]-3-(imidazol-1-yl)propylamine dihydrochloride hemihydrate] | –
84 µM | CC(C)(CS(=O)(=O)c1ccc(C(C)(C)C)cc1)NCCCn1ccnc1 [Example 70, N-[2-(4-t-butylphenylsulphonyl)-1,1-dimethylethyl]-3-(imidazol-1-yl)-propylamine dihydrochloride] | –
23 µM | CC(C)(NCCCn1ccnc1)c1ccc(OS(=O)(=O)c2ccccc2)cc1 [Example 71, 4-{1-[3-(imidazol-1-yl)propylamino]-1-methylethyl}phenyl benzenesulphonate] | –
24 µM | CCCCS(=O)(=O)Oc1ccc(C(C)(C)NCCCn2ccnc2)cc1 [Example 72, 4-{1-[3-(imidazol-1-yl)propylamino]-1-methylethyl}phenyl 1-butanesulphonate] | –
25 µM | CC(C)(NCCCn1ccnc1)c1ccc(Cl)c(NC(=O)c2ccccc2)c1 [Example 73, 2'-chloro-5'-{1-[3-(imidazol-1-yl)propylamino]-1-methylethyl}benzanilide] | –
82 µM | CCCOC(=O)c1ccc(C(C)(C)NCC(O)Cn2ccnc2)cc1 (stereo not drawn) [Example 74, propyl 4-{1-[2-hydroxy-3-(imidazol-1-yl)propylamino]-1-methylethyl}benzoate] | –
26 µM | CC(C)(COc1ccccc1)NCCCCCn1ccnc1 [Example 75, 5-(imidazol-1-yl)-N-(1,1-dimethyl-2-phenoxyethyl)pentylamine] | –
16 µM | CC(C)(COc1ccccc1)NCCCn1cnc(CCNC(=O)c2ccccc2)c1 [Example 76, N-(2-{1-[3-(1,1-dimethyl-2-phenoxyethylamino)-propyl]imidazol-4-yl}ethyl)benzamide] | –
12 µM | CC(C)(COc1ccccc1)NCCCn1cnc(CCNS(=O)(=O)c2ccccc2)c1 [Example 77, N-(2-{1-[3-(1,1-dimethyl-2-phenoxyethylamino)propyl]imidazol-4-yl}ethyl]benzene-sulphonamide] | –
92 µM | CC(C)(COC(=O)c1ccccc1)NCCCn1ccnc1 [Example 78, 2-[3-(imidazol-1-yl)propylamino]-2,2-dimethylethyl benzoate dihydrochloride] | –
20 µM | CC(C)(COC(=O)c1ccc(Cl)cc1)NCCCn1ccnc1 [Example 79, 2-[3-(imidazol-1-yl)propylamino]-2,2-dimethylethyl 4-chlorobenzoate dihydrochloride] | –
13 µM | CC(C)(COCc1ccc(Cl)cc1)NCCCn1ccnc1 [Example 80, N-[2-(4-chlorobenzyloxy)-1,1-dimethylethyl]-3-(imidazol-1-yl)propylamine] | –
65 µM | c1ccc(CCCNCCCCCn2ccnc2)cc1 [Example 81, N-(3-phenylpropyl)-5-imidazol-1-ylpentylamine 0.75 hydrate] | –
17 µM | CCCCNCc1cn(CCCNC(C)(C)c2ccc(Cl)cc2)cn1 [Example 82, 3-[4-(butylaminomethyl)imidazol-1-yl]-N-[1-(4-chlorophenyl)-1-methylethyl]propylamine] | –
90 µM | CC(C)(NCc1ncc[nH]1)c1ccc(Cl)cc1 [Example 83, 1-(4-chlorophenyl)-N-(imidazol-2-ylmethyl)-1-methylethylamine] | –
15 µM | CC(C)(NCCCc1c[nH]cn1)c1ccc(Cl)cc1 [Example 84, N-[1-(4-chlorophenyl)-1-methylethyl]-3-(imidazol-4(5)-yl)propylamine] | –
47 µM | CC(C)(NCCc1c[nH]cn1)c1ccc(Cl)cc1 [Example 85, 1-(4-chlorophenyl)-2'-(imidazol-4(5)-yl)-1-methyldiethylamine] | activity in carrageenan-induced pleurisy at 10 mg/kg [1]: active
3 µM | CC(C)(NCCCc1nccn1Cc1ccccc1)c1ccc(Cl)cc1 [Example 86, 3-(1-benzylimidazol-2-yl)-N-[1-(4-chlorophenyl)-1-methylethyl]propylamine] | –
100 µM | COc1ccc(OCC(C)(C)NCCCn2ccnc2)cc1 [Example 108, N-[2-(4-methoxyphenoxy)-1,1-dimethylethyl]-3-(imidazol-1-yl)propylamine dihydrochloride hydrate] | –
33 µM | CC(C)(COc1ccc(C2=NCCS2)cc1)NCCCn1ccnc1 [Example 109, N-[1,1-dimethyl-2-[4-(4,5-dihydrothiazol-2-yl)phenoxy]ethyl}-3-(imidazol-1-yl)propylamine dimaleate] | –
